Measurements from US9469617B2, “Molecules having certain pesticidal utilities, and intermediates, compositions, and processes related thereto” (priority 2014, dated 2016).

Assays:
Assay type in all cases: in vivo
[1] = tested on: Cabbage Looper (CL) (Trichoplusia ni); assay: Bioassay on Cabbage Looper (CL), 128-well diet tray assay; conditions: 168 h, Table ABC, 50 μg/cm^2 on artificial diet, second instar larvae, five to seven days, 25° C., read-out: CL % Control (or Mortality) rating
Experimental: (§1) Certain molecules disclosed in this document were tested against BAW and CL using procedures described in the following examples. In the reporting of the results, the “BAW & CL Rating Table” was used (See Table Section).
Bioassays on CL were conducted using a 128-well diet tray assay. One to five second instar CL larvae were placed in each well (3 mL) of the diet tray that had been previously filled with 1 mL of artificial diet to which 50 μg/cm^2 of the test compound (dissolved in 50 μL of 90:10 acetone-water mixture) had been applied (to each of eight wells) and then allowed to dry. Trays were covered with a clear self-adhesive cover, and held at 25° C., 14:10 light-dark for five to seven days. Percent mortality was recorded for the larvae in each well; activity in the eight wells was then averaged. The results are indicated in the table entitled “Table ABC: Assay Results” and “Table ABCD: Assay Results” (See Table Section).

[2] = tested on: Beet Armyworm (BAW) (Spodoptera exigua); assay: Bioassay on Beet Armyworm (BAW), 128-well diet tray assay; conditions: 168 h, Table ABC, 50 μg/cm^2 on artificial diet, second instar larvae, five to seven days, 25° C., read-out: BAW % Control (or Mortality) rating
Experimental: as §1
Bioassays on BAW were conducted using a 128-well diet tray assay. one to five second instar BAW larvae were placed in each well (3 mL) of the diet tray that had been previously filled with 1 mL of artificial diet to which 50 μg/cm^2 of the test compound (dissolved in 50 μL of 90:10 acetone-water mixture) had been applied (to each of eight wells) and then allowed to dry. Trays were covered with a clear self-adhesive cover, and held at 25° C., 14:10 light-dark for five to seven days. Percent mortality was recorded for the larvae in each well; activity in the eight wells was then averaged. The results are indicated in the tables entitled “Table ABC: Assay Results” and “Table ABCD: Assay Results” (See Table Section).

[3] = tested on: Yellow Fever Mosquito (YFM) (Aedes aegypti); assay: Bioassay on Yellow Fever Mosquito (YFM) larvae, 96-well plate; conditions: Table ABC; about 1 day-old larvae, master plate 4000 ppm in DMSO diluted, scored on mortality after 3 days
Experimental: Certain molecules disclosed in this document were tested against YFM using procedures described in the following paragraph. In the reporting of the results, the “GPA & YFM Rating Table” was used (See Table Section).
Master plates containing 400 μg of a molecule dissolved in 100 μL of dimethyl sulfoxide (DMSO) (equivalent to a 4000 ppm solution) are used. A master plate of assembled molecules contains 15 μL per well. To this plate, 135 μL of a 90:10 water:acetone mixture is added to each well. A robot (Biomek® NXP Laboratory Automation Workstation) is programmed to dispense 15 μL aspirations from the master plate into an empty 96-well shallow plate (“daughter” plate). There are 6 reps (“daughter” plates) created per master. The created daughter plates are then immediately infested with YFM larvae.
The day before plates are to be treated, mosquito eggs are placed in Millipore water containing liver powder to begin hatching (4 g. into 400 mL). After the daughter plates are created using the robot, they are infested with 220 μL of the liver powder/larval mosquito mixture (about 1 day-old larvae). After plates are infested with mosquito larvae, a non-evaporative lid is used to cover the plate to reduce drying. Plates are held at room temperature for 3 days prior to grading. After 3 days, each well is observed and scored based on mortality.

| Compound | mortality at 50 µg/cm2 [1] | mortality at 50 µg/cm2 [2] | YFM % Control (or Mortality) rating [3] |
| --- | --- | --- | --- |
| CC(C)c1ccccc1N1C(=O)CS/C1=N\C(=O)NC1CCc2cc(-c3ncn(-c4ccc(OC(F)(F)F)cc4)n3)ccc2C1 (stereo not drawn) [P24, (Z)-1-(3-(2-Isopropylphenyl)-4-oxothiazolidin-2-ylidene)-3-(6-(1-(4-(trifluoromethoxy)phenyl)-1H-1,2,4-triazol-3-yl)-1,2,3,4-tetrahydronaphthalen-2-yl)urea] | 50 to 100% | 50 to 100% | A (80-100) |
| CCCc1ccc(C)cc1NC(=S)NC(=O)NC1CCc2cc(-c3ncn(-c4ccc(OC(F)(F)F)cc4)n3)ccc2C1 (stereo not drawn) [P27, 1-[(5-Methyl-2-propyl-phenyl)carbamothioyl]-3-[6-[1-[4-(trifluoromethoxy)phenyl]-1,2,4-triazol-3-yl]tetralin-2-yl]urea] | 50 to 100% | 50 to 100% | A (80-100) |
| Cc1ccc(C(C)C)c(N2C(=O)C(C)S/C2=N\C(=O)NC2Cc3ccc(-c4ncn(-c5ccc(OC(F)(F)F)cc5)n4)cc3C2)c1 (stereo not drawn) [P13, (Z)-1-(3-(2-Isopropyl-5-methylphenyl)-5-methyl-4-oxothiazolidin-2-ylidene)-3-(5-(1-(4-(trifluoromethoxy)phenyl)-1H-1,2,4-triazol-3-yl)-2,3-dihydro-1H-inden-2-yl)urea] | 50 to 100% | 50 to 100% | B (More than 0-Less than 80) |
| COc1ccc(C(C)C)c(N2C(=O)CS/C2=N\C(=O)NC2Cc3ccc(-c4ncn(-c5ccc(OC(F)(F)F)cc5)n4)cc3C2)c1 (stereo not drawn) [P9, (Z)-1-(3-(2-Isopropyl-5-methoxyphenyl)-4-oxothiazolidin-2-ylidene)-3-(5-(1-(4-(trifluoromethoxy)phenyl)-1H-1,2,4-triazol-3-yl)-2,3-dihydro-1H-inden-2-yl)urea] | 50 to 100% | 50 to 100% | A (80-100) |
| CC(C)c1ccccc1N1C(=O)CS/C1=N\C(=O)NC1Cc2ccc(-c3ncn(-c4ccc(OC(F)(F)F)cc4)n3)cc2C1 (stereo not drawn) [F16, (Z)-1-(3-(2-Isopropylphenyl)-4-oxothiazolidin-2-ylidene)-3-(5-(1-(4-(trifluoromethoxy)phenyl)-1H-1,2,4-triazol-3-yl)-2,3-dihydro-1H-inden-2-yl)urea] | 50 to 100% | 50 to 100% | A (80-100) |
| CCc1cccc(C)c1N1C(=O)CS/C1=N\C(=O)NC1CCc2cc(-c3ncn(-c4ccc(OC(F)(F)F)cc4)n3)ccc2C1 (stereo not drawn) [P36, (Z)-1-(3-(2-Ethyl-6-methylphenyl)-4-oxothiazolidin-2-ylidene)-3-(6-(1-(4-(trifluoromethoxy)phenyl)-1H-1,2,4-triazol-3-yl)-1,2,3,4-tetrahydronaphthalen-2-yl)urea] | 50 to 100% | 50 to 100% | A (80-100) |
| Cc1cs/c(=N\C(=O)NC2Cc3ccc(-c4ncn(-c5ccc(OC(F)(F)F)cc5)n4)cc3C2)n1-c1ccccc1C(C)C (stereo not drawn) [FA1, (Z)-1-(3-(2-isopropylphenyl)-4-methylthiazol-2(3H)-ylidene)-3-(5-(1-(4-(trifluoromethoxy)phenyl)-1H-1,2,4-triazol-3-yl)-2,3-dihydro-1H-inden-2-yl)urea] | 50 to 100% | 50 to 100% | A (80-100) |
| Cc1ccc(C)c(N2C(=O)CS/C2=N\C(=O)NC2CCc3cc(-c4ncn(-c5ccc(OC(F)(F)F)cc5)n4)ccc3C2)c1 (stereo not drawn) [P32, (Z)-1-(3-(2,5-Dimethylphenyl)-4-oxothiazolidin-2-ylidene)-3-(6-(1-(4-(trifluoromethoxy)phenyl)-1H-1,2,4-triazol-3-yl)-1,2,3,4-tetrahydronaphthalen-2-yl)urea] | 50 to 100% | 50 to 100% | B (More than 0-Less than 80) |
